Measured values from ChEMBL document CHEMBL3102715, “Synthesis and anti-rhinovirus activity of novel 3-[2-(pyridinyl)vinyl]substituted -2H-chromenes and -4H-chromen-4-ones” (Bioorg Med Chem, 2014).
Active and inactive are the calls of the source. No cut-off for these calls is given here.

Experiments:
rhinovirus A1B [1] = assay: Antiviral activity against HRV 1B infected in human HeLa cells assessed as reduction in plaque number at maximum non-cytotoxic concentration after 3 days by neutral red assay; assay type: functional, Human rhinovirus 1B; set-up: scale not given: the % may be the effect or the level left
[2] = Selectivity index, ratio of CC50 for human HeLa cells to IC50 for HRV 14 infected in human HeLa cells; assay type: functional
rhinovirus B14 [3] = assay: Antiviral activity against HRV 14 infected in human HeLa cells assessed as reduction in plaque number after 3 days by neutral red assay; assay type: functional, organism-based; settings: Rhinovirus B, 72 h
rhinovirus A1B [4] = assay: Antiviral activity against HRV 1B infected in human HeLa cells assessed as reduction in plaque number after 3 days by neutral red assay; assay type: functional, organism-based, Human rhinovirus 1B; settings: Rhinovirus A, 72 h
[5] = Cytotoxicity against human HeLa cells assessed as reduction in cell viability after 3 days by XTT assay; assay type: cell-based; settings: for MNTC at 72 h: read-out: MNCC
[6] = Selectivity index, ratio of CC50 for human HeLa cells to IC50 for HRV 1B infected in human HeLa cells; assay type: functional
rhinovirus B14 [7] = assay: Antiviral activity against HRV 14 infected in human HeLa cells assessed as inhibition of viral yield compound treated at 58 uM for 1 hr prior infection followed by compound wash-out by plaque assay; assay type: functional; settings: Rhinovirus B
rhinovirus A1B [8] = assay: Antiviral activity against HRV 1B infected in human HeLa cells assessed as inhibition of viral yield compound treated at 43 uM for 1 hr prior infection followed by compound wash-out by plaque assay; assay type: functional, Human rhinovirus 1B; settings: Rhinovirus A
rhinovirus B14 [9] = assay: Antiviral activity against HRV 14 infected in human HeLa cells assessed as inhibition of viral yield compound treated at 58 uM during 1 hr at 4 degC followed by compound washout by plaque assay; assay type: functional; settings: Rhinovirus B
rhinovirus A1B [10] = assay: Antiviral activity against HRV 1B infected in human HeLa cells assessed as inhibition of viral yield compound treated at 43 uM during 1 hr at 4 degC followed by compound washout by plaque assay; assay type: functional, Human rhinovirus 1B; settings: Rhinovirus A
rhinovirus B14 [11] = assay: Antiviral activity against HRV 14 infected in human HeLa cells assessed as maximal reduction of viral yield at 58 uM treated 6 hrs post adsorption period measured after 10 hrs by plaque assay; assay type: functional, organism-based
rhinovirus A1B [12] = assay: Antiviral activity against HRV 1B infected in human HeLa cells assessed as maximal reduction of viral yield at 43 uM treated 4 hrs post adsorption period measured after 10 hrs by plaque assay; assay type: functional, organism-based; settings: Human rhinovirus 1B
rhinovirus B14 [13] = assay: Antiviral activity against HRV 14 infected in human HeLa cells assessed as half-maximal reduction of viral yield at 58 uM treated 1 hr post adsorption period measured after 10 hrs by plaque assay; assay type: functional, organism-based
rhinovirus A1B [14] = assay: Antiviral activity against HRV 1B infected in human HeLa cells assessed as half-maximal reduction of viral yield at 43 uM treated 45 mins post adsorption period measured after 10 hrs by plaque assay; assay type: functional, organism-based; settings: Human rhinovirus 1B
rhinovirus A1B [15] = assay: Antiviral activity against HRV 1B infected in human HeLa cells assessed as reduction of viral yield at 43 uM treated 2 hrs post infection measured after 10 hrs by plaque assay; assay type: functional, organism-based; settings: Human rhinovirus 1B
rhinovirus B14 [16] = assay: Antiviral activity against HRV 14 infected in human HeLa cells assessed as reduction of viral yield at 58 uM treated 4 hrs post infection measured after 10 hrs by plaque assay; assay type: functional, organism-based
rhinovirus B14 [17] = assay: Antiviral activity against HRV 14 infected in human HeLa cells assessed as inhibition of viral yield compound treated at 58 uM prior to 1 hr incubated at 4 degC followed by 10 hrs at 33 degC infection period by plaque assay; assay type: functional
rhinovirus A1B [18] = assay: Antiviral activity against HRV 1B infected in human HeLa cells assessed as inhibition of viral yield compound treated at 43 uM prior to 1 hr incubated at 4 degC followed by 10 hrs at 33 degC infection period by plaque assay; assay type: functional, Human rhinovirus 1B
rhinovirus B14 [19] = assay: Antiviral activity against HRV 14 infected in human HeLa cells assessed as inhibition of viral yield at 58 uM treated at 1 hr after virus adsorption period measured after 10 hrs by plaque assay relative to control; assay type: functional; settings: Rhinovirus B
rhinovirus A1B [20] = assay: Antiviral activity against HRV 1B infected in human HeLa cells assessed as inhibition of viral yield at 43 uM treated at 1 hr after virus adsorption period measured after 10 hrs by plaque assay relative to control; assay type: functional, Human rhinovirus 1B; settings: Rhinovirus A
rhinovirus B14 [21] = assay: Antiviral activity against HRV 14 infected in human HeLa cells assessed as log reduction in infectivity at 58 uM after 10 hrs by plaque assay at 56 degC relative to control; assay type: functional
rhinovirus A1B [22] = assay: Antiviral activity against HRV 1B infected in human HeLa cells assessed as log reduction in infectivity at 43 uM after 10 hrs by plaque assay at 56 degC relative to control; assay type: functional, Human rhinovirus 1B
rhinovirus B14 [23] = assay: Antiviral activity against HRV 14 infected in human HeLa cells assessed as log reduction in infectivity at 58 uM after 10 hrs by plaque assay at pH 5.0 relative to control; assay type: functional
rhinovirus A1B [24] = assay: Antiviral activity against HRV 1B infected in human HeLa cells assessed as log reduction in infectivity at 43 uM after 10 hrs by plaque assay at pH 5.0 relative to control; assay type: functional, Human rhinovirus 1B
rhinovirus A1B [25] = assay: Antiviral activity against HRV 1B infected in human HeLa cells assessed as inhibition of viral yield at 43 uM treated during 10 hrs multiplication period by plaque assay relative to control; assay type: functional, Human rhinovirus 1B; settings: Rhinovirus A
rhinovirus B14 [26] = assay: Antiviral activity against HRV 14 infected in human HeLa cells assessed as inhibition of viral yield at 58 uM treated during 10 hrs multiplication period by plaque assay relative to control; assay type: functional; settings: Rhinovirus B

SMILES	Ratio CC50/IC50 [2]	IC50 (rhinovirus B14 [3]) [µM]	IC50 (rhinovirus A1B [4]) [µM]	CC50 at 72 h [5] [µM]	MNTC at 72 h [5] [µM]	Ratio CC50/IC50 [6]	other results
O=c1c(/C=C/c2ccncc2)coc2ccccc12	>1.08	92.1	> 100	> 100	> 100	–	Activity (rhinovirus A1B [1]): 22%
Clc1ccc2c(c1)C=C(/C=C/c1ccncc1)CO2	11.17	6.71	4.74	75	50	15.82	–
O=c1c(/C=C/c2ccncc2)coc2ccc(Cl)cc12	9.6	15.6	19.1	150	100	7.87	–
C1=C(/C=C/c2ccccn2)COc2ccccc21	>17.06	2.93	1.7	> 50	> 50	>29.41	inhibition at 58 µM (rhinovirus B14 [7]): 1%; inhibition at 43 µM (rhinovirus A1B [8]): 24%; inhibition at 58 µM (rhinovirus B14 [9]): 16%; inhibition at 43 µM (rhinovirus A1B [10]): 14%; Activity (rhinovirus B14 [11]): Active; Activity (rhinovirus A1B [12]): Active; Activity (rhinovirus B14 [13]): Active; Activity (rhinovirus A1B [14]): Active; Activity (rhinovirus A1B [15]): inactive; Activity (rhinovirus B14 [16]): inactive; inhibition (INH) (rhinovirus B14 [17]): 90%; inhibition (INH) (rhinovirus A1B [18]): 90%; inhibition at 58 µM (rhinovirus B14 [19]): 90%; inhibition at 43 µM (rhinovirus A1B [20]): 90%; FC (rhinovirus B14 [21]): 0.9; FC (rhinovirus A1B [22]): 1.1; FC (rhinovirus B14 [23]): 0.9; FC (rhinovirus A1B [24]): 1; inhibition at 43 µM (rhinovirus A1B [25]): 90%; inhibition at 58 µM (rhinovirus B14 [26]): 90%
O=c1c(/C=C\c2cccnc2)coc2ccc(Cl)cc12	4.94	10.1	4.26	50	25	11.74	–
O=c1c(/C=C/c2ccccn2)coc2ccc(Cl)cc12	>9.8	5.1	1.6	> 50	> 50	>31.25	–
Clc1ccc2c(c1)C=C(/C=C/c1cccnc1)CO2	8.78	4.27	4.34	37.5	25	8.64	–
C1=C(/C=C\c2ccncc2)COc2ccccc21	17.24	2.9	0.71	50	25	70.42	–
O=c1c(/C=C\c2cccnc2)coc2ccccc12	>12.98	15.4	46.8	> 200	> 200	>4.28	–
Clc1ccc2c(c1)C=C(/C=C/c1ccccn1)CO2	>5.58	8.96	1.69	> 50	> 50	>29.59	–
C1=C(/C=C/c2cccnc2)COc2ccccc21	19.33	3.88	4.57	75	25	16.41	–
O=c1c(/C=C/c2ccccn2)coc2ccccc12	>28.25	7.08	5.15	> 200	> 200	>38.84	–
C1=C(/C=C\c2cccnc2)COc2ccccc21	4	9.37	0.98	37.5	25	38.26	–
C1=C(/C=C/c2ccncc2)COc2ccccc21	24.75	3.03	1.96	75	50	38.26	–
